The record followed here is patent US20250179059A1 (The Regents of the University of California, priority 2021, published 2025).

Read-outs that look alike come from different tables or passages of the source. Some results are limits rather than exact numbers.

The target of assay [1] is T1, human BRD4 bromodomain II (Homo sapiens, UniProt O60885).
T1 construct: human BRD4 bromodomain II [based on Genbank NM_058243, residues 349-460]; host or cells: E. coli
Put plainly: Bromodomain binding assay (AlphaScreen), BRD4 BDII. Summed up:
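E. coli-expressed N-terminal His6-tagged human BRD4 BDII (residues 349-460) or BDI (residues 44-170) was preincubated 30 min at room temperature with compound (10-point, 3-fold) in pH 7.5 HEPES buffer, 1% DMSO. Displacement of biotinylated tetra-acetylated H4 1-21 peptide was read by AlphaScreen, and IC50 came from curve fitting.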
Background: Bead proximity is the source of the signal in Alpha formats.

For assay [2], the system named is human SKM-1 acute myeloid leukemia cells. Put plainly: SKM-1 antiproliferation cell-based assay (ATPlite). The note with it: Homo sapiens. Summed up:
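Log-phase cells in RPMI 1640/15% FBS were seeded at 34722 cells/mL and exposed for 4 days to nine-concentration DMSO serial dilutions in triplicate. Viability was read as ATP luminescence (ATPlite 1step), and IC50 values came from variable-slope non-linear regression.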
(In general: Cellular ATP, detected with luciferase, serves as a proxy for viable cell number.)

[3] abbreviates: BRD4 BDII AlphaScreen assay, read-out: BRD4 BD2 IC50.
Setting [4] is: SKM-1, SKM-1 antiproliferation assay.
Where [5] appears, read: AlphaScreen assay, Table C2, read-out: BRD4 BDII IC50.
Setting [6] is: SKM-1, 96 h, SKM-1 antiproliferation assay, 4 days, Table C2.

The IC50 is the point on the concentration scale where inhibition reaches its midpoint. Usually GI50 stands for the concentration that inhibits growth by half. High values mean lower sensitivity of the cells, low ones greater sensitivity of the cells. In the case of `COc1ncc(-c2cc(F)cc(-c3ccc(-n4ccn(C)c4=O)c(C)c3)c2O)cc1N1CCN(C(C)(C)C)CC1` [Example 948, 1-(3′-(5-(4-(tert-butyl)piperazin-1-yl)-6-methoxypyridin-3-yl)-5′-fluoro-2′-hydroxy-3-methyl-[1,1′-biphenyl]-4-yl)-3-methyl-1,3-dihydro-2H-imidazol-2-one], in assay [1] (setting [3]), the IC50 lay in the range of 1 to 10 nM. For the same molecule, in assay [2] (setting [4]), the GI50 lay within 0.3 to 30 nM.

As for `C[C@@H]1CN(c2cc(-c3cc(F)cc(-c4ccc(-n5ccn(C)c5=O)c(Cl)c4)c3O)cc3c2cnn3C)CCN1` [Example 580], in assay [1] (setting [5]), the IC50 was in the range of 0.01 to 1 nM. The molecule further had a GI50 in assay [2] (setting [6]) of 0.3 to 30 nM.

Turning to `CN1CCN(c2cc(-c3cc(F)cc(-c4ccc(-n5ccn(C)c5=O)c(Cl)c4)c3O)ccn2)CC1` [Example 430, 1-(3-chloro-5′-fluoro-2′-hydroxy-3′-(2-(4-methylpiperazin-1-yl)pyridin-4-yl)-[1,1′-biphenyl]-4-yl)-3-methyl-1H-imidazol-2(3H)-one], the IC50 in assay [1] (setting [5]) is 0.01 to 1 nM. The molecule also displayed a GI50 in assay [2] (setting [6]) of 0.3 to 30 nM.

On to `Cc1ncc(-c2cc(F)cc(-c3ccc(-n4ccn(C)c4=O)c(Cl)c3)c2O)cc1N1CC[C@@]2(CCCN2C(C)C)C1` [Example 955, (S)-1-(3-chloro-5′-fluoro-2′-hydroxy-3′-(5-(1-isopropyl-1,7-diazaspiro[4.4]nonan-7-yl)-6-methylpyridin-3-yl)-[1,1′-biphenyl]-4-yl)-3-methyl-1,3-dihydro-2H-imidazol-2-one], for which, in assay [1] (setting [3]), the IC50 was in the range of 1 to 10 nM. The same molecule yielded a GI50 in assay [2] (setting [4]) of 0.3 to 30 nM.

For `[2H]C([2H])([2H])n1ccn(-c2ccc(-c3cc(C)nc(-c4cccc(N5CCN(C(C)(C)C)CC5)c4)c3O)cc2Cl)c1=O` [Example 991, 1-(4-(2-(3-(4-(tert-Butyl)piperazin-1-yl)phenyl)-3-hydroxy-6-methylpyridin-4-yl)-2-chlorophenyl)-3-(methyl-d3)-1,3-dihydro-2H-imidazol-2-one], the IC50 in assay [1] (setting [3]) fell in the range of 1 to 10 nM. In assay [2] (setting [4]), the GI50 was in the range of 0.3 to 30 nM.

For the molecule `Cn1ccn(-c2ccc(-c3cc(F)cc(-c4cnc(C5CC5)c(N5CC(C)(O)C6(CC6)C5)c4)c3O)cc2Cl)c1=O` (stereo not drawn) [Example 849, 1-(3-Chloro-3′-(6-cyclopropyl-5-(7-hydroxy-7-methyl-5-azaspiro[2.4]heptan-5-yl)pyridin-3-yl)-5′-fluoro-2′-hydroxy-[1,1′-biphenyl]-4-yl)-3-methyl-1H-imidazol-2(3H)-one], the IC50 in assay [1] (setting [3]) lay within 0.01 to 1 nM. The GI50 in assay [2] (setting [4]) fell in the range of 30 to 300 nM.

On to `Cn1ccn(-c2ccc(-c3cc(F)cc(-c4cncc(N5CC[C@](C)(O)C5)c4)c3O)cc2Cl)c1=O` [Example 729, (S)-1-(3-chloro-5′-fluoro-2′-hydroxy-3′-(5-(3-hydroxy-3-methylpyrrolidin-1-yl)pyridin-3-yl)-[1,1′-biphenyl]-4-yl)-3-methyl-1H-imidazol-2(3H)-one], for which the IC50 in assay [1] (setting [5]) was in the range of 0.01 to 1 nM. Moreover, in assay [2] (setting [6]), the GI50 fell in the range of 0.3 to 30 nM.

Turning to `COc1ncc(-c2nc(C)cc(-c3ccc(-n4ccn(C)c4=O)c(Cl)c3)c2O)cc1N1CCC2(CCN2C(C)C)C1` (stereo not drawn) [Example 977, 1-(2-chloro-4-(3-hydroxy-5′-(1-isopropyl-1,6-diazaspiro[3.4]octan-6-yl)-6′-methoxy-6-methyl-[2,3′-bipyridin]-4-yl)phenyl)-3-methyl-1H-imidazol-2(3H)-one], the IC50 in assay [1] (setting [3]) fell in the range of 0.01 to 1 nM. Further, in assay [2] (setting [4]), the GI50 lay in the range of 0.3 to 30 nM.

Regarding `Cn1cc(-c2cc(F)cc(-c3ccc(-n4ccn(C)c4=O)c(Cl)c3)c2O)cc(N2CC[C@](C)(N)C2)c1=O` [Example 759, (S)-3-(3-amino-3-methylpyrrolidin-1-yl)-5-(3′-chloro-5-fluoro-2-hydroxy-4′-(3-methyl-2-oxo-2,3-dihydro-1H-imidazol-1-yl)-[1,1′-biphenyl]-3-yl)-1-methylpyridin-2(1H)-one], the IC50 in assay [1] (setting [5]) fell in the range of 0.01 to 1 nM. Besides, in assay [2] (setting [6]), the GI50 fell in the range of 0.3 to 30 nM.

Consider `Cn1ccn(-c2ccc(-c3cc(F)cc(-c4cc(N5CCN(C(C)(C)C)CC5)ncn4)c3O)cc2Cl)c1=O` [Example 942, 1-(3′-(6-(4-(tert-butyl)piperazin-1-yl)pyrimidin-4-yl)-3-chloro-5′-fluoro-2′-hydroxy-[1,1′-biphenyl]-4-yl)-3-methyl-1H-imidazol-2(3H)-one], for which the IC50 in assay [1] (setting [3]) is over 100 nM. Also, the GI50 in assay [2] (setting [4]) lay in the range of 300 to 3000 nM.

On to `CC(=O)Nc1ccc(-c2cccc(-c3ccnc(C#CCN)c3)c2O)cc1F` [Example 296, N-(3′-(2-(3-aminoprop-1-yn-1-yl)pyridin-4-yl)-3-fluoro-2′-hydroxy-[1,1′-biphenyl]-4-yl)acetamide], for which the IC50 in assay [1] (setting [5]) was 10 to 100 nM. Further, the GI50 in assay [2] (setting [6]) fell in the range of 300 to 3000 nM.

For the molecule `Cn1ccn(-c2ccc(-c3cc(F)cc(-c4ccnc(N5CCNC(c6ccccc6)C5)c4)c3O)cc2Cl)c1=O` (stereo not drawn) [Example 631, 1-(3-chloro-5′-fluoro-2′-hydroxy-3′-(2-(3-phenylpiperazin-1-yl)pyridin-4-yl)-[1,1′-biphenyl]-4-yl)-3-methyl-1H-imidazol-2(3H)-one], the IC50 in assay [1] (setting [5]) is 0.01 to 1 nM. In addition, in assay [2] (setting [6]), the GI50 fell in the range of 30 to 300 nM.

Turning to `C[C@@H]1CN(c2cc(-c3cc(F)cc(-c4ccc(-n5ccn(C)c5=O)c(Cl)c4)c3O)cn(CCCO)c2=O)CCN1` [Example 630, (R)-5-(3′-chloro-5-fluoro-2-hydroxy-4′-(3-methyl-2-oxo-2,3-dihydro-IH-imidazol-1-yl)-[1,1′-biphenyl]-3-yl)-1-(3-hydroxypropyl)-3-(3-methylpiperazin-1-yl)pyridin-2(1H)-one], in assay [1] (setting [5]), the IC50 lay in the range of 0.01 to 1 nM. In assay [2] (setting [6]), this molecule gave a GI50 of 30 to 300 nM.

Take `Cn1ccn(-c2ccc(-c3cc(F)cc(-c4ccnc(N5CCN6CCCC6C5)c4)c3O)cc2Cl)c1=O` (stereo not drawn) [Example 625, 1-(3-chloro-5′-fluoro-3′-(2-(hexahydropyrrolo[1,2-a]pyrazin-2(1H)-yl)pyridin-4-yl)-2′-hydroxy-[1,1′-biphenyl]-4-yl)-3-methyl-1H-imrdazol-2(3H)-one]: in assay [1] (setting [5]), the IC50 fell in the range of 0.01 to 1 nM. In assay [2] (setting [6]), this molecule had a GI50 of 0.3 to 30 nM.

On to `Cc1cc(-c2ccnc(N3CCN[C@H](C)C3)c2)c(O)c(-c2ccc(-n3ccn(C)c3=O)c(F)c2)c1` [Example 546, (R)-1-(3-fluoro-2′-hydroxy-5′-methyl-3′-(2-(3-methylpiperazin-1-yl)pyridin-4-yl)-[1,1′-biphenyl]-4-yl)-3-methyl-1H-imidazol-2(3H)-one], for which the IC50 in assay [1] (setting [5]) lay in the range of 0.01 to 1 nM. In assay [2] (setting [6]), the GI50 lay in the range of 0.3 to 30 nM.

In the case of `C[C@@H]1CN(c2cc(-c3cc(F)cc(-c4ccc(-n5ccn(C)c5=O)c(Cl)c4)c3O)cn(C)c2=O)CCN1` [Example 432, (R)-5-(3′-chloro-5-fluoro-2-hydroxy-4′-(3-methyl-2-oxo-2,3-dihydro-1H-imidazol-1-yl)-[1,1′-biphenyl]-3-yl)-1-methyl-3-(3-methylpiperazin-1-yl)pyridin-2(1H)-one], the IC50 in assay [1] (setting [5]) was 0.01 to 1 nM. In assay [2] (setting [6]), this molecule yielded a GI50 of 0.3 to 30 nM.

Regarding `Cn1ccn(-c2ccc(-c3cc(F)cc(-c4ccnc(N5CCN(C6CCOC6)CC5)c4)c3O)cc2Cl)c1=O` (stereo not drawn) [Example 618, 1-(3-chloro-5′-fluoro-2′-hydroxy-3′-(2-(4-(tetrahydrofuran-3-yl)piperazin-1-yl)pyridin-4-yl)-[1,1′-biphenyl]-4-yl)-3-methyl-1H-imidazol-2(3H)-one], in assay [1] (setting [5]), the IC50 was 0.01 to 1 nM. This molecule returned a GI50 in assay [2] (setting [6]) of 30 to 300 nM.

Regarding `Cc1cc(-c2ccc(-n3ccn(C)c3=O)c(Cl)c2)c(O)c(-c2cc(N3CCNCC3)c3nccnc3c2)c1` [Example 562, 1-(3-chloro-2′-hydroxy-5′-methyl-3′-(8-(piperazin-1-yl)quinoxalin-6-yl)-[1,1′-biphenyl]-4-yl)-3-methyl-1H-imidazol-2(3H)-one], the IC50 in assay [1] (setting [5]) was in the range of 0.01 to 1 nM. Also, in assay [2] (setting [6]), the GI50 lay in the range of 0.3 to 30 nM.
